Reference: patent US7235560B2, “Pyrimidine derivative as selective COX-2 inhibitors” (priority 2002, dated 2007)

What was measured:
microsomal h-COX2 = target: T1, microsomal h-COX2 (Homo sapiens, UniProt P35354); assay: Microsomal assay, inhibition of h-COX2 (PGE2 by EIA); format: biochemical; settings: microsomal preparation from baculovirus infected SF9 cells; 1 hour preincubation; 0.1 μM arachidonic acid; read-out: COX-2: IC50
T1 construct: made in house; host or cells: baculovirus infected SF9 cells (microsomal preparation)
T1 sequence (P35354 18-604): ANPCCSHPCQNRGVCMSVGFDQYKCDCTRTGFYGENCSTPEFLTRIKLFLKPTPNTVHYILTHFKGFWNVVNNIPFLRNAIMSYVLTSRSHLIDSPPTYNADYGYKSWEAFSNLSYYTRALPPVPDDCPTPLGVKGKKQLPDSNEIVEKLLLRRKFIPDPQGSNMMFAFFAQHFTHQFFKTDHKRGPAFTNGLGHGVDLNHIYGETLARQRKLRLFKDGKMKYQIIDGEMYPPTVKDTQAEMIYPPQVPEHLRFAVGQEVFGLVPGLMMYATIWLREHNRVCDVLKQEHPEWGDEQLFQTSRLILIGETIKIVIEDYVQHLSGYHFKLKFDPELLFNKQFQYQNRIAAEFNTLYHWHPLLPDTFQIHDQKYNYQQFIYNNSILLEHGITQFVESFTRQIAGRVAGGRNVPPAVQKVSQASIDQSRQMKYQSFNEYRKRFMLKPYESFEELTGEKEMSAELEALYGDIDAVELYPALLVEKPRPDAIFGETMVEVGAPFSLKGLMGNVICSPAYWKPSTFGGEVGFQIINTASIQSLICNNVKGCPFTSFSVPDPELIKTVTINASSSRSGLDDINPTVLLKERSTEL
Description: Inhibitory activity against microsomal h-COX2 was assessed against a microsomal preparation from baculovirus infected SF9 cells. An aliquot of microsomal preparation was thawed slowly on ice and a 1/40,000 dilution prepared from it into the assay buffer (sterile water, degassed with argon containing 100 mM HEPES (pH 7.4), 10 mM EDTA (pH7.4), 1 mM phenol, 1 mM reduced glutathione, 20 mg/ml gelatin and 0.001 mM Hematin). Once diluted the enzyme solution was then sonicated for 5 seconds (Branson sonicator, setting 4, 1 cm tip) to ensure a homogeneous suspension. 155 μl enzyme solution was then added to each well of a 96-well microtitre plate containing either 5 μl test compound (40× required test concentration) or 5 μl DMSO for controls. Plates were then mixed and incubated at room temperature for 1 hour. Following the incubation period, 40 μl of 0.5 μM arachidonic acid was added to each well to give a final concentration of 0.1 μM. Plates were then mixed and incubated for exactly 10 minutes (room temperature) prior to addition of 25 μl 1M HCl (hydrochloric acid) to each well to stop the reaction. 25 μl of 1M NaOH (sodium hydroxide) was then added to each well to neutralise the solution prior to determination of PGE2 levels by enzyme immunoassay (EIA).
The following IC50 values for inhibition of COX-2 and COX-1 were obtained from the microsomal assay for compounds of the invention: […]

COX-1 = COX-1 (Homo sapiens, UniProt P23219); assay: Microsomal assay, inhibition of COX-1; format: biochemical
Sequence of COX-1 (P23219 24-599): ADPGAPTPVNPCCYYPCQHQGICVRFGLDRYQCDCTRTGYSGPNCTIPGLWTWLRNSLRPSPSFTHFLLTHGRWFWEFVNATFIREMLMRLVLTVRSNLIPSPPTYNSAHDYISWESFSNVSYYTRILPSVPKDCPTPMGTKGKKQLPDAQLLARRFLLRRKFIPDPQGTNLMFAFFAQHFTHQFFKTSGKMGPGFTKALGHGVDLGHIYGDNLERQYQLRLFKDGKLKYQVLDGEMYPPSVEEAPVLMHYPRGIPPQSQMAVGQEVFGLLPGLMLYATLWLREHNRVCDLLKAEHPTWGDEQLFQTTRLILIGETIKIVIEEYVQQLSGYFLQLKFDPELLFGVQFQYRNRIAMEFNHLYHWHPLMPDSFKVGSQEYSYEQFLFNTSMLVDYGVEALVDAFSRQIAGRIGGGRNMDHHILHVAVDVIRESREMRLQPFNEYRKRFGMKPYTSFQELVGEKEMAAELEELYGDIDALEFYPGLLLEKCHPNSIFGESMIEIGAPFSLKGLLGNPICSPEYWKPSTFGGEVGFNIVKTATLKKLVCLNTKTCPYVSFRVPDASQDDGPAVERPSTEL

Work on Cc1cc(-c2ccc(S(C)(=O)=O)cn2)nc(NCc2ccccc2)n1 [Example 1] yielded an IC50 (microsomal h-COX2) of 51 nM and an IC50 (COX-1) of 23100 nM.
Cc1cccc(CN(C)c2nc(-c3ccc(S(C)(=O)=O)cn3)cc(C(F)(F)F)n2)n1 [Example 3, [4-(5-Methanesulfonyl-pyridin-2-yl)-6-trifluoromethyl-pyrimidin-2-yl]-methyl-(6-methyl-pyridin-2-ylmethyl)-amine] was tested, and the IC50 (microsomal h-COX2) was 5 nM and the IC50 (COX-1) was 67100 nM.
In the case of CS(=O)(=O)c1ccc(-c2cc(C(F)(F)F)nc(NC3CCCCC3)n2)nc1 [Example 5, Cyclohexyl-[4-(5-methanesulfonyl-pyridin-2-yl)-6-trifluoromethyl-pyrimidin-2-yl]-amine], the IC50 (microsomal h-COX2) is reported as 19 nM and the IC50 (COX-1) is reported as greater than 100000 nM.
